Data published in US11324832B2, “Tripartite modulators of endosomal G protein-coupled receptors” (Endosome Therapeutics, Inc., priority 2015, dated 2022).
Where a SMILES comes first, the peptide text is derived from it. [ ]: non-standard residue; d: D form. The star is where a group is joined. X1 = CC(C)CCC[C@@H](C)[C@H]1CC[C@H]2[C@@H]3CC[C@H]4C[C@@H](O*)CC[C@]4(C)[C@H]3CC[C@]12C; PEG4 = NCCOCCOCCOCCOCCC(=O)O; PEG3 = NCCOCCOCCOCCC(=O)O

Assays:
NK1R [1] = molecular target: NK1R (Rattus norvegicus, UniProt P14600); assay: SP-stimulated Ca2+ signaling in HEK-NK1R cells, antagonist mode; assay type: cell-based; parameters: Full length and truncated 6312 rat HA-NK1R have been described; expressed in transfected cells; host or cells: HEK293 (transient); settings: SP 3 nM (EC80), HEK-NK1R cells, 30 min pre-incubation; read-out: pIC50, antagonism of SP-stimulated Ca^2+ signaling (converted)
Sequence of NK1R (Rattus norvegicus, UniProt P14600) (P14600 whole entry, the tested form may be a part): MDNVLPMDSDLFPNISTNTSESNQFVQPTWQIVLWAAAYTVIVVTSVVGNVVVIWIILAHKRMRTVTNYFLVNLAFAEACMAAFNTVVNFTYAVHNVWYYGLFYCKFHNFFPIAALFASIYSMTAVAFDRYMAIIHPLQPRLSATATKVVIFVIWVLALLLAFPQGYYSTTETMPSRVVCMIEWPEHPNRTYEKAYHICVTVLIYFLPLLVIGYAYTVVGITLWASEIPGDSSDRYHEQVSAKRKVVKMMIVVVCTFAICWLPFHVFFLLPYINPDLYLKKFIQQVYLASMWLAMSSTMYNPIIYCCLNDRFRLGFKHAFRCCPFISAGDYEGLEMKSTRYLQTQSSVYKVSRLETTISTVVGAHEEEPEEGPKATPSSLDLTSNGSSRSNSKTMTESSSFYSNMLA
Description: [Ca^2+]i was measured as described (Jensen, D. D. et al., J Biol Chem, 2014, 289, 20283-20294). HEK293 cells transiently expressing HA-NK1R or HA-CLR/Myc-RAMP1 were loaded with Fura2-AM (2 μM).

NK1R [2] = assay: NK1R endocytosis in rat spinal neurons in vivo; settings: lamina I neurons; i.t. 50 μM 30 min before intraplantar capsaicin; 10 min after capsaicin
Description: The spinal cord was collected 10 min later for localization of the NK1R. In controls (intrathecal, intraplantar vehicle), NK1R-IR was mostly at the plasma membrane of the soma and neurites of lamina I neurons (80.7±1.6% of total NK1R-IR within […] of the soma plasma membrane).
After 10 min, rats were transcardially perfused with PBS and then 4% PFA. The spinal cord was removed, immersion fixed in PFA (2 h, 4° C.), and cryoprotected (30% sucrose, PBS, 24 h, 4° C.). The spinal cord (T12 to L4) was embedded in OCT and […] serial coronal sections were cut into 48-well plates containing PBS. Free-floating sections were blocked in PBS containing 10% normal horse serum (1 h, RT). Sections were incubated with mouse anti-NeuN (1:20,000; AbCam) and either rabbit anti-NK1R (1:5,000, #94168) or rabbit anti-pERK (1:200; Cell Signaling Technology) in PBS containing 3% normal horse serum (48 h, 4° C.). Sections were washed (4×20 min in PBS) and incubated with donkey anti-rabbit Alexa488 (1:8,000) and donkey anti-mouse Alexa568 (1:2,000 (Life Technologies) (1 h, RT). Sections were washed, incubated with DAPI (10 μg/ml, 5 min), and mounted in Vectashield (Vector Laboratories).
Tissues and cells were observed using a Leica SP8 confocal microscope using HCX PL APO 40× (NA 1.30) and HCX PL APO 63× (NA 1.40) oil objectives. Z stacks were collected of NKiR-positive neurons in lamina I of the dorsal horn. Video projections of Z stacks were made using Imaris Software (Bitplane). NK1R endocytosis and pERK expression were quantified using ImageJ. To quantify NK1R internalization in lamina I neurons, the border of the cytoplasm of the neuronal soma was defined by NeuN fluorescence, and NK1R fluorescence within 5 pixels (0.5 μm) of the border was defined as plasma membrane-associated receptor. The ratio of plasma membrane to cytosolic NK1R-IR fluorescence was determined in >6 lamina I neurons per condition. To quantify ERK activation, the ratio of the number of pERK-IR neurons to total Neu-N-positive neurons in lamina I was determined in >6 fields (×40 objective) per condition.

[3] = Solubility in low DMSO for electrophysiology; assay type: physicochemical; settings: low concentrations of DMSO required for electrophysiology
Description: Slices of rat spinal cord were transferred to a recording chamber and superfused with normal ACSF (2 ml·min^−1, 36° C.). […] PS2 was not soluble in the low concentrations of DMSO required for electrophysiology. Large, NKiR-positive, presumed nociceptive lamina I neurons were visually identified as described (Imlach, W. L., et al., Molecular Pharmacology, 2015, 88, 460-428). Spontaneous currents were recorded in cell-attached configuration (Multiclamp 700B, Molecular Devices, Sunnyvale, Calif.), sampled at 10 kHz, high pass filtered at 1 Hz, and capacitatively coupled action potential events were analyzed using Axograph X, V 1.4.4 (Axograph). […] Recordings were sampled at 10 kHz and filtered with a high pass filter at 1 Hz and firing rate was measured in two-minute interval bins. […] The firing time was determined as the duration of the response to last action potential. To assess synaptic transmission, whole-cell configuration recordings were made under control conditions or after exposure to Dy4 or Dy4 inact; a bipolar stimulating electrode was placed at the dorsal root entry zone, and electrically-evoked excitatory postsynaptic currents recorded as described (Imlach, W. L., et al., Molecular Pharmacology, 2015, 88, 460-428).

[4] = system: capsaicin-evoked mechanical hyperalgesia in mice; settings: mouse, in vivo
Description: To evaluate the importance of NK1R, clathrin and dynamin, mice (C57BL/6, male, 6-10 weeks) were injected intrathecally (L3/L4) with vehicle, NK1R antagonist SR140,333, Dy4, Dy4 inact, PS2 or PS2 inact. After 30 min, intraplantar injections of vehicle or capsaicin were made into the left hindpaw. Mechanical hyperalgesia was measured by stimulation of the plantar surface of the left and right paws with von Frey filaments, and inflammatory edema was assessed by measuring left paw thickness with calipers.
Mice were acclimatized to the experimental apparatus and environment for 1-2 h on 2 successive days before experiments. Mechanical hyperalgesia was assessed by paw withdrawal to stimulation of the plantar surface of the hind-paw with graded von Frey filaments. On the day before the study, von Frey scores were measured in triplicate to establish a baseline for each animal. To assess edema of the paw, hindpaw thickness was measured using digital calipers before and after treatments. For intraplantar injections, mice were sedated (5% isoflurane). Capsaicin (5 μg), Complete Freund's Adjuvant (CFA, 2 mg/ml), or vehicle (capsaicin, 20% ethanol, 10% Tween 80, 70% saline; CFA, saline) was injected subcutaneously into the plantar surface of the left hindpaw (10 μl). von Frey scores (left and right paws) and paw thickness (left paw) were measured for 30-240 min after capsaicin, and 36-40 h after injection of CFA. Results are expressed as percent pre-injected values. For assessment of nocifensive behavior, mice were sedated and formalin (4%, 10 μl) was injected subcutaneously into the plantar surface of the left hindpaw. Mice were placed in a Perspex container and nocifensive behavior (flinching, licking, biting of the injected paw) was recorded for 60 min. The total number of nocifensive events was subdivided into acute (I, 0-10 min) and tonic (II, 10-60 min) phases. […] Investigators were unaware of test agents.
Intrathecal injections (5 μl, L3/L4) were made into conscious mice. Dy4, Dy4 inact, PS2, PS2 inact (all 50 μM), SR-140333 (15 μM), SM-19712 (8 mM), U0126 (100 μM), or vehicle (1% DMSO/saline) was injected intrathecally 30 min before intra-plantar injection of capsaicin or formalin, or 36 h after CFA.

SMILES | IC50 (NK1R [1]) [nM] | NK1R-IR at plasma membrane (% membrane) (NK1R [2]) [%] | solubility [3] | effect on paw withdrawal responses of the uninjected right hind paw [4]
CC(=O)N[C@@H](CC(=O)O[C@H]1CC[C@@]2(C)[C@@H](CC[C@@H]3[C@@H]2CC[C@]2(C)[C@@H]([C@H](C)CCCC(C)C)CC[C@@H]32)C1)C(=O)NCCOCCOCCOCCOCCC(=O)NCCOCCOCCOCCC(=O)NCCOCCOCCOCCOCCC(=O)N[C@H](CCCNC(=N)N)C(=O)N1CCC[C@H]1C(=O)N[C@@H](CCCCN)C(=O)N1CCC[C@H]1C(=O)N[C@@H](CCC(N)=O)C(=O)N[C@@H](CCC(N)=O)C(=O)N[C@H](Cc1c[nH]c2ccccc12)C(=O)N[C@@H](Cc1ccccc1)C(=O)N[C@H](Cc1c[nH]c2ccccc12)C(=O)N[C@@H](CC(C)C)C(=O)N[C@@H](CC(C)C)C(N)=O [Compound 1] (Ac-D(X1)[PEG4][PEG3][PEG4][dR]PKPQQ[dW]F[dW]LL-NH2) | 3.63 | – | – | –
O=C1NC(=NS(=O)(=O)c2cccc3ccccc23)S/C1=C\c1ccc(Br)cc1 [PS2] | – | 69.0±1.1 | not soluble | –
O=C(N/N=C/c1cc(O)c(O)cc1O)c1cc2ccccc2cc1O [Dy4] | – | 59.6±0.2 | – | did not affect
